Assays:
[1] = system: human microvascular endothelial cell line (HMEC-1); assay: C3 deposition on ADP-activated HMEC-1 exposed to STEC-HUS patient serum; type: cell-based; settings: for reduction of C3 deposition on ADP-activated HMEC-1: STEC-HUS patient serum, 4 hours, p<0.0001
Procedure: As described in Morigi et al., 2011 (Morigi M, Galbusera M, Gastoldi S, Locatelli, M, Buelli, S, Pezzotta A, Pagani C, Noris M, Gobbi M, Stravalaci M, Rottoli D, Tedesco F, Remuzzi G and Joja C: 2011. Alternative pathway activation of complement by Shiga toxin promotes exuberant C3a formation that triggers microvascular thrombosis. J Immunol. 187(1):172-80), human microvascular endothelial cell line of dermal origin (HMEC-1, ATCC CRL-3243) were plated on glass slides and used when confluent. […]. At the end of the incubation step HMEC-1 were treated with fluorochrome-conjugated anti-human C3c. In each experiment, a pool of sera from healthy controls was tested in parallel with patient serum. A confocal inverted laser microscope was used for acquisition of the fluorescent staining on endothelial cell surface.
Fifteen fields per sample were acquired and the area occupied by the fluorescent staining was evaluated by automatic edge detection using built-in specific functions of the software Image J and expressed as pixel2 per field analyzed. The highest and lowest values were discarded and the mean±SE was calculated on the remaining 13 fields.
Results: Serum from patients with acute STEC-HUS induced a massive C3 deposition on ADP-activated endothelial cells in respect to sera from healthy controls (P<0.0001). […].

[2] = system: passive Heymann nephritis in rats; assay: Passive Heymann nephritis in rats (model for membranous nephropathy); type: in vivo, rat; settings: for combined histopathology score: p<0.005; for reduction of proteinuria: twice daily oral gavage, 14 days post transfer, p<0.0001; for proteinuria: 60 mg/kg twice daily oral gavage starting 6 days post serum transfer
Source text: 4. FB Inhibitor Prevents the Development and Progression of Passive Heymann Nephritis in Rats
Passive Heymann nephritis in the rat is the most common animal model for membranous nephropathy (see Jefferson J A, Pippin J W and Shankland S J 2010. Experimental Models of membranous nephropathy. Drug Discov Today Dis Models. 7(1-2):27-33). It is induced by the transfer of a polyclonal serum derived from rabbits immunized with rat megalin and manifests inflammatory changes in the kidney that are highly reminiscent with the human disease. Significant proteinuria is observed 4 days after the antibody transfer and increases until 2 weeks post transfer.

Compound: CCO[C@H]1CCN(Cc2c(OC)cc(C)c3[nH]ccc23)[C@H](c2ccc(C(=O)O)cc2)C1 [compound of embodiment 5, 4-((2S,4S)-4-ethoxy-1-((5-methoxy-7-methyl-1H-indol-4-yl)methyl)piperidin-2-yl)benzoic acid]
- reduction of C3 deposition on ADP-activated HMEC-1 ([1]; 1 microM): 73%
- reduction of C3 deposition on ADP-activated HMEC-1 ([1]; 10 microM): 89%
- C3 deposits on endothelial cells versus cells exposed to control sera ([1]; 10 microM, STEC-HUS serum): did not significantly differ
- combined histopathology score ([2]; prophylactic, 20 mg/kg, vehicle 2.2): 0.3
- combined histopathology score ([2]; prophylactic, 60 mg/kg, vehicle 2.2): 0.4
- reduction of proteinuria ([2]; prophylactic, 20 mg/kg/d): 82%
- reduction of proteinuria ([2]; prophylactic, 60 mg/kg/d): 75%
- proteinuria ([2]; therapeutic, day 6 (control 0.79)): 0.74
- proteinuria ([2]; therapeutic, day 14 (control 1.93)): 0.81
- effect on disease progression ([2]; therapeutic, 60 mg/kg twice daily oral gavage starting after manifestation of proteinuria (6 days post serum transfer)): blocked further progression of the disease
- combined histopathology score ([2]; therapeutic, 60 mg/kg twice daily oral gavage starting day 6, vehicle 2.7): 1.1
